According to patent publication US20240228434A1, “PRODRUGS OF KV7 CHANNEL OPENERS” (Xyzagen, Inc., priority 2021, published 2024):

How the values were obtained:
[1] = Plasma and brain concentration after oral Compound 29; conditions: oral 30 mg/kg Compound 29, 0.25, 0.5 and 1 h
Excerpt: (§1) Each male CF-1 mouse provided one data point in the MES assay and one data point in the concentration analysis. There were 8 mice per time point.

[2] = Acid and organic solution stability, HPLC-UV 250 nm; conditions: 5 mg/mL; for Degradation / conversion to ezogabine in solution (summary): up to 3 weeks
Method: An HPLC-UV Vis method was developed using 0.1% Formic acid in water as mobile phase A and 0.1% Formic acid in acetonitrile as mobile Phase B. A gradient method was developed ramping from 10% A to 90% B over 8 minutes and then returning to 10% A at 8.5 minutes on a 4.6×50 mm Zorbax C-18 column. Injections of 10 uL of stability solutions were injected for analyte detection.
[…] Aliquots were collected at serial time points and then diluted to a nominal concentration of 100 ug/mL for injection to the HPLC and 250 nm monitored by the diode array detector. Data at approximately 10 days is presented.
Aliquots were collected at serial time points and then diluted to a nominal concentration of 100 ug/mL for injection to the HPLC and 250 nm monitored by the diode array detector.
(§2) It was also evaluated at 2 N HCl at 37° C. Aliquots were collected at serial time points and then diluted to a nominal concentration of 100 ug/mL for injection to the HPLC and 250 nm monitored by the diode array detector.
as §2, §2, §2

[3] = Rat PK at equimolar dose to Ezogabine (20 mg/kg) in 0.5% methylcellulose; conditions: for Exposure of ezogabine (dose normalized AUC) compared with ezogabine itself: rats, equimolar dose to Ezogabine 20 mg/kg
Method: (§3) Blood samples were collected at the same time points over 24 hours to generate a concentration time profile. Two male rats were dosed per group. Plasma samples were analyzed by LC/MS/MS and the resulting concentration time profiles and PK parameters are provided.
as §3, §3

MES induced seizures [4] = assay: Mouse maximal electroshock (MES) assay of Compound 29, oral; format: in vivo, CF-1 mouse; conditions: oral 30 mg/kg; 0.25, 0.5 and 1 h
Excerpt: as §1

[5] = Drug concentration in plasma and brain after Compound 28 IP; conditions: CF-1 mice, 30 minutes
MES induced seizures [6] = assay: Maximal electroshock assay of Compound 28, IP; format: in vivo, CF-1 mice; conditions: for Animals protected from MES induced seizures: 30 minutes after administration
[7] = male jugular vein cannulated rats, dose equimolar to Ezogabine 20 mg/kg, 0.5% methylcellulose in water, 24 hours, analyte the dosed prodrug
[8] = male jugular vein cannulated rats, dose equimolar to Ezogabine 20 mg/kg, 0.5% methylcellulose in water, analyte the dosed prodrug

CCNC(=O)CC[C@H](N)C(=O)Nc1cc(NCc2ccc(F)cc2)ccc1NC(=O)OCC.Cl [Compound 29]
Exposure of ezogabine [1]: very high in plasma and was present in brain | Degradation / conversion to ezogabine in solution (summary) [2]: degradation under acidic conditions and also conversion to ezogabine | Ezogabine Area ([2]; 0.1N HCl, room temp., normal light, 441 h): 0 mAU | Ezogabine Area ([2]; 1N HCl, room temp., normal light, 441 h): 1241 mAU | Ezogabine Area ([2]; 2N HCl 37 C., 441 h): 1755 mAU | Ezogabine Area ([2]; 2N HCl, room temp., normal light, 441 h): 1659 mAU | Ezogabine Area ([2]; Methanol, room temp., normal light, 441 h): 0 mAU | AUClast [3, 7]: 6.11 µg·h/mL | Cmax/D ([3]; male jugular vein cannulated rats, dose equimolar to Ezogabine 20 mg/kg, 0.5% methylcellulose in water, analyte Ezogabine): 23.3 ng/mL/mg/kg | Cmax [3, 8]: 0.883 µg/mL | Cmax/D [3, 8]: 44.2 ng/mL/mg/kg | Tmax [3, 8]: 9.6 min | Exposure of ezogabine (dose normalized AUC) compared with ezogabine itself [3]: similar | Pharmacological response in MES over time (MES induced seizures [4]): reduced in tandem to the decrease in brain concentrations

CCOC(=O)Nc1ccc(NCc2ccc(F)cc2)cc1NC(=O)C[C@@H](CN)CC(C)C [Compound 28]
Degradation / conversion to ezogabine in solution (summary) [2]: degradation to ezogabine with increasing strength of the acidic solution | Ezogabine Area ([2]; 0.1N HCl, room temp., normal light, 440 h): 0 mAU | Ezogabine Area ([2]; 1N HCl, room temp., normal light, 440 h): 568 mAU | Ezogabine Area ([2]; 2N HCl 37 C., 440 h): 3593 mAU | Ezogabine Area ([2]; 2N HCl, room temp., normal light, 440 h): 1462 mAU | Appearance of the stability solution ([2]; 11 days): clear and colorless through Day 11 | % Remaining ([2]; 440 h): 92.0% | Ezogabine Area ([2]; Acetonitrile, room temp., normal light, 440 h): 248 mAU | Ezogabine Area ([2]; Methanol, room temp., normal light, 440 h): 0 mAU | Concentration of the prodrug compared with ezogabine [5]: present at higher concentrations than ezogabine | AUClast/D [3, 7]: 83.0 ng·h/mL/mg/kg | Cmax/D [3, 8]: 9.31 ng/mL/mg/kg | Exposure of ezogabine (dose normalized AUC) compared with ezogabine itself [3]: lower exposure | Animals protected from MES induced seizures (MES induced seizures [6]; IP 12 mg/kg): 1 of 9 | Animals protected from MES induced seizures (MES induced seizures [6]; IP 24 mg/kg): 3 of 9 | Protection against MES induced seizures, dose response (MES induced seizures [6]; IP 1.5, 3, 6, 12 and 24 mg/kg): None of the doses showed complete protection
